In patent publication US20260217837A1, “FGFR3 BINDING MOLECULES AND METHODS OF USE THEREOF” (Regeneron Pharmaceuticals, Inc., priority 2023, published 2026):

Key:
[1] = system: locally advanced or metastatic bladder cancer; conditions: patients who receive cisplatin; Wong & Rosenberg, 2021; cited from earlier work
[2] = system: BaF3 cells expressing FGFR3 V557M; test: BaF3 cell viability, FGFR3 V557M; type: cell-based; conditions: 72 hours, FGF1/heparin
Text: (§1) cDNA expressing FGFR3 mutants (S249C, S248C, Y375C, V555M, V555L, S249C+V555M, or S249C+V555L) were synthesized and cloned into pLVX Lenti-viral vector (Thermo Fisher). Viral particles were generated by lipofectamine transfection of LentiX 293T cells using Lenti-X packaging single shots following manufacturer's protocol (Clontech/Takara) and concentrated using Lenti-X concentrator and titer determined using Lenti-X p24 rapid titer kit (Clontech/Takara). BaF3 cells were transduced with virus at ~0.3 MOI.
(§2) For cell proliferation assays, engineered BaF3/hFGFR3 cells grown in complete medium were washed and plated in IL-3-free culture media±5 μg/ml heparin and 1 nM human FGF1. Cells were plated out at 1×10^5 cells/well into 96-well plates, followed by the addition of 1:3 serially diluted antibodies as indicated in figures. After addition of antibodies, cells were incubated at 37° C. for 72 h followed by the addition of CellTiter-Glo™ (Promega) reagent. The luminescent signal was detected by Envision plate reader (PerkinElmer). Data was analyzed using Prism software (GraphPad). […]

[3] = system: BaF3 cells expressing the double mutant FGFR3 S249C+V557M; test: BaF3 cell viability, FGFR3 S249C+V557M; type: cell-based; conditions: 72 hours, FGF1/heparin
Text: as §1, §2

[4] = system: BaF3 cells expressing FGFR3 V557L; test: BaF3 cell viability, FGFR3 V557L; type: cell-based; conditions: 72 hours, FGF1/heparin
Text: as §1, §2

[5] = system: BaF3 cells expressing the double mutant FGFR3 S249C+V557L; test: BaF3 cell viability, FGFR3 S249C+V557L; type: cell-based; conditions: 72 hours, FGF1/heparin
Text: as §1, §2

Compound	median overall survival [1]	growth of BaF3 cells expressing FGFR3 V557M [2]	growth of BaF3 cells expressing FGFR3 S249C+V557M [3]	growth of BaF3 cells expressing FGFR3 V557L [4]	growth of BaF3 cells expressing FGFR3 S249C+V557L [5]
N.N.[Cl][Pt][Cl] [cisplatin]	approximately 14 months	–	–	–	–
AZD4547 [reference compound]	–	ineffective	ineffective	ineffective	ineffective
